Consider four molecules from publication PMC4365076, “The phage growth limitation system in Streptomyces coelicolor A(3)2 is a toxin/antitoxin system, comprising enzymes with DNA methyltransferase, protein kinase and ATPase activity” (Virology, 2015).

Positions count from the first letter of the chain named. Names may count otherwise.

In one series the target is T1, PglX (PglX–His6) (Streptomyces coelicolor, UniProt Q8CJM2).
T1 construct: NPPY motif at 378–381
T1 sequence (Q8CJM2 1-1210): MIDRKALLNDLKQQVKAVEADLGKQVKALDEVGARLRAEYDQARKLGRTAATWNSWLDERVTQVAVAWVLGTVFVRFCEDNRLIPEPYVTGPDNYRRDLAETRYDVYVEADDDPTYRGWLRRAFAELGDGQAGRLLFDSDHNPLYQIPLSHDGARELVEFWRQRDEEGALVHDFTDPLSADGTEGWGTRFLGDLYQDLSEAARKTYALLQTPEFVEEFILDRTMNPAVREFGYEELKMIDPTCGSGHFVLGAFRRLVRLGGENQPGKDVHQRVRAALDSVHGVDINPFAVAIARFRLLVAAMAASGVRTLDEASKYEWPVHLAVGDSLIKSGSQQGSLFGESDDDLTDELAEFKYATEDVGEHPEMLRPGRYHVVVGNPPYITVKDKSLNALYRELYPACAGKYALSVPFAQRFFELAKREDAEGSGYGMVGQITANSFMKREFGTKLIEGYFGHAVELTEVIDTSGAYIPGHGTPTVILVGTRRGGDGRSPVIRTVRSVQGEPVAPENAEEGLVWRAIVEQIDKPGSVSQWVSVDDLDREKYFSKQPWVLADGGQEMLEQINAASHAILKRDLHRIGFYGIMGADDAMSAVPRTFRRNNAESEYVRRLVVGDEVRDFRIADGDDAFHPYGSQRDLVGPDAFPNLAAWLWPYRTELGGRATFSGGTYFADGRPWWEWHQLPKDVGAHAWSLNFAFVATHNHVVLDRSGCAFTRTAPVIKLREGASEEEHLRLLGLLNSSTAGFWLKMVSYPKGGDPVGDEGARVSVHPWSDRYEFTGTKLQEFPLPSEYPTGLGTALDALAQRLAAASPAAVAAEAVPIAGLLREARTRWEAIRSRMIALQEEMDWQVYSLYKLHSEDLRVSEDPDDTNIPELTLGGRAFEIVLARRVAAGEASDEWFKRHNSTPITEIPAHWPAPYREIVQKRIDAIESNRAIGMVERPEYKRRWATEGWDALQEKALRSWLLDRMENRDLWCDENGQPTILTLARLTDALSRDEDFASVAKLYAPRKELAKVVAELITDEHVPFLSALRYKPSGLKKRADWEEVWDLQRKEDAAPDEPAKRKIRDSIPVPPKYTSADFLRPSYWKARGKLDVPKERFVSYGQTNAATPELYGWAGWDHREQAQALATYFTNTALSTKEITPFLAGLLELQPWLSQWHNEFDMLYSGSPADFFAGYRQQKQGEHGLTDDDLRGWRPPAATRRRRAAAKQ
Put plainly: 3H-methyl incorporation into DNA, scintillation counting. The format is biochemical. Conditions: 12 μM labelled compound, phage ϕC31 DNA co-substrate, 1 mM EDTA, pH 7.5, 30 °C; partially purified enzyme.

For a further series, the target named is T2, PglY (His6–PglY) (Streptomyces coelicolor, UniProt O86682).
T2 construct: ~160 kDa band, MALDI-TOF identified; Walker A GSFGSGKS at 75–82
T2 sequence (O86682 1-1294): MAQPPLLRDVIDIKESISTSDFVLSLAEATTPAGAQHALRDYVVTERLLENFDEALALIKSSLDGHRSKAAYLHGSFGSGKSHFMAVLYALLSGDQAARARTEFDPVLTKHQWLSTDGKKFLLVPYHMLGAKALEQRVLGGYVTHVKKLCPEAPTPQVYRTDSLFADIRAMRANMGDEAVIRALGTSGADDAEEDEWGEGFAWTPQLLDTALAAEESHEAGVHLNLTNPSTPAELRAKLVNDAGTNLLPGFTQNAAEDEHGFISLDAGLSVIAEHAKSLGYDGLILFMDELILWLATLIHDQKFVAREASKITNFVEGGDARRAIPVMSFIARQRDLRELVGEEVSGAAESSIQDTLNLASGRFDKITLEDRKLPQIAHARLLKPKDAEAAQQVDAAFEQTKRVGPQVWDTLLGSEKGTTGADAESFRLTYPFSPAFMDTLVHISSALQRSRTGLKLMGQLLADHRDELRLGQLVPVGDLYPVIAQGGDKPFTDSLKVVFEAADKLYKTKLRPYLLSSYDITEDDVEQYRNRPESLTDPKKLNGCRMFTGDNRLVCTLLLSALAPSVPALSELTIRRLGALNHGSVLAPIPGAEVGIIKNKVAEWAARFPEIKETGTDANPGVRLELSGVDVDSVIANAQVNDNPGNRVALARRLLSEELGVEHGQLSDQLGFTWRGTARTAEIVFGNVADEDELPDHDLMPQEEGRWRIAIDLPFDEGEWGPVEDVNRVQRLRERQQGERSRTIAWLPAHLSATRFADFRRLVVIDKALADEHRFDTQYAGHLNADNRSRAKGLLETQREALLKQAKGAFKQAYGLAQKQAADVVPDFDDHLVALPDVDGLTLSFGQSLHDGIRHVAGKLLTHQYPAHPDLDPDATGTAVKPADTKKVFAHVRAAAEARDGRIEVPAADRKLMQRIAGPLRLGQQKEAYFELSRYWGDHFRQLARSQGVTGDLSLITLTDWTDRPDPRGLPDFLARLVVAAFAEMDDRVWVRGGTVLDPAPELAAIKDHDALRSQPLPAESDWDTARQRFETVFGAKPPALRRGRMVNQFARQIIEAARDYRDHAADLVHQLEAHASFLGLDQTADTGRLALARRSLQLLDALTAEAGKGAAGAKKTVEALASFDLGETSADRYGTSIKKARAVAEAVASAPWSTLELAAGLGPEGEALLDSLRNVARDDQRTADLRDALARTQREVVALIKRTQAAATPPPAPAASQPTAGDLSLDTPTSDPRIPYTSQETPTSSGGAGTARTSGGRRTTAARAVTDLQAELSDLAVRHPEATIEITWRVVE
The series can be described thus: inhibition of ATP hydrolysis, Pi release, malachite green. In kind it is biochemical. The note with it: 1–3 mM ADP-NP against 1–3 mM ATP; 30 °C, pH 8.0, 10 mM MgCl2.

Substrate in series [1]: Nc1ncnc2c1ncn2[C@@H]1O[C@H](COP(=O)(O)OP(=O)(O)OP(=O)(O)O)[C@@H](O)[C@H]1O
The series can be described thus: Pi release, malachite green. The note with it: 30 °C, 40 mM HEPES pH 8.0, 10 mM MgCl2, 10 mM DTT, 0.1 mg/ml BSA. The format is biochemical, Streptomyces coelicolor.

What is called Km is the concentration of substrate that gives half-maximal velocity.

As for `C[S+](CC[C@H](N)C(=O)O)C[C@H]1O[C@@H](n2cnc3c(N)ncnc32)[C@H](O)[C@@H]1O` (stereo partly shown) [AdoMet], the “3H-methyl incorporation into DNA, scintillation counting” value on PglX (PglX–His6) is reported as “incorporation of label into TCA precipitable material was dependent on DNA addition”. On to `Nc1ncnc2c1ncn2[C@@H]1O[C@H](COP(=O)(O)OP(=O)(O)NP(=O)(O)O)[C@@H](O)[C@H]1O` [ADP-NP], for which the “inhibition of ATP hydrolysis, Pi release, malachite green” value on PglY (His6–PglY) was “severely inhibited rate of hydrolysis of ATP, indicative of ADP-NP binding and inhibition of activity”.

B1: PglY (His6–PglY) (Streptomyces coelicolor A3(2)) (protein)
chain: T2 sequence (O86682 1-1294)
notes: ~160 kDa band, MALDI-TOF identified; Walker A GSFGSGKS at 75–82
On to B1, for which, in series [1], the Km stood at 0.5 mM.

B2: PglY (His6–PglY) (Streptomyces coelicolor A3(2); K81A/S82A) (protein)
chain: T2 sequence (O86682 1-1294) with K81A, S82A
notes: as for B1
On to B2, for which, in series [1] (Walker A double mutant), the Michaelis-Menten constant (Km) came out at 100 mM.
